Results as given in patent publication US8604016B2, “Heterocyclic inhibitors of glutaminase” (Calithera Biosciences Inc., priority 2011, dated 2013).

The compounds below were run against recombinant form of Glutaminase 1 (GAC) (Homo sapiens, UniProt O94925) (assay: Recombinant Enzyme Assay (GAC coupled to GDH, NADH absorbance, no preincubation)). Conditions: no preincubation; read-out: GAC Delta N2 IC50 no preinc.
Assay type: biochemical
Summary of the method: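 GAC (4 nM) in Tris-HCl pH 8.0 with 150 mM K2HPO4, EDTA, BSA, DTT, plus 4 units/ml GDH and 4 mM ADP, without preincubation. Absorbance at 340 nm was read kinetically for 15 min at 20° C. Slopes (mAU/min) were compared with DMSO-only and control-compound wells on the same plate.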

SMILES	IC50 [nM]
O=C(Cc1ccccc1)Nc1nnc(CSCc2nnc(NC(=O)Cc3ccccc3)s2)s1 [Compound 145]	> 20000
O=C(Nc1nnc(CCCCc2nnc(NC(=O)[C@@H](O)Cc3ccccc3)s2)s1)[C@@H](O)Cc1ccccc1 [Compound 146]	430
CO[C@@H](C(=O)Nc1nnc(CCCCc2nnc(NC(=O)[C@H](OC)c3ccccc3)s2)s1)c1ccccc1 [Compound 147]	620
CO[C@H](C(=O)Nc1nnc(CCCCc2nnc(NC(=O)[C@@H](OC)c3ccccc3)s2)s1)c1ccccc1 [Compound 148]	590
O=C(Cc1ccccc1)Nc1nnc(CCNCCc2nnc(NC(=O)Cc3ccccc3)s2)s1 [Compound 149, N,N′-(5,5′-(azanediyl-bis(ethane-2,1-diyl))-bis(1,3,4-thiadiazole-5,2-diyl))-bis(2-phenylacetamide) trifluoroacetic acid]	15000
CCN(C(=O)Cc1ccccc1)c1nnc(CCSCCc2nnc(N(CC)C(=O)Cc3ccccc3)s2)s1 [Compound 150]	> 20000
CC(CO)(CO)C(=O)Nc1nnc(CCCCc2nnc(NC(=O)C(C)(CO)CO)s2)s1 [Compound 151]	14000
CC(CO)(CO)C(=O)Nc1nnc(CCCCc2nnc(NC(=O)Cc3cccc(F)c3)s2)s1 [Compound 152, N,N′-(5-(4-(5-(2-(3-fluorophenyl)acetamido)-1,3,4-thiadiazol-2-yl)butyl)-1,3,4-thiadiazol-2-yl)-3-hydroxy-2-(hydroxymethyl)-2-methylpropanamide]	730
O=C(C[C@@H](O)C(=O)O)Nc1nnc(CCCCc2nnc(NC(=O)C[C@@H](O)C(=O)O)s2)s1 [Compound 154]	19000
N#Cc1cccc(CC(=O)Nc2nnc(CCSCCc3nnc(NC(=O)Cc4cccc(C#N)c4)s3)s2)c1 [Compound 155]	270
COc1ccc(CC(=O)Nc2nnc(CCSCCc3nnc(NC(=O)Cc4ccc(OC)c(OC)c4)s3)s2)cc1OC [Compound 157]	340
CS(=O)(=O)c1cccc(CC(=O)Nc2nnc(CCSCCc3nnc(NC(=O)Cc4cccc(S(C)(=O)=O)c4)s3)s2)c1 [Compound 158]	220
COc1ccc(CC(=O)Nc2nnc(CCCCc3nnc(NC(=O)Cc4ccc(OC)c(OC)c4)s3)s2)cc1OC [Compound 160]	160
COc1ccc(CC(=O)Nc2nnc(CCSCCc3nnc(NC(=O)Cc4ccc(OC)cc4)s3)s2)cc1 [Compound 161]	150
CN(C)c1ccc(CC(=O)Nc2nnc(CCSCCc3nnc(NC(=O)Cc4ccc(N(C)C)cc4)s3)s2)cc1 [Compound 162]	230
CN(C)c1ccc(CC(=O)Nc2nnc(CCCCc3nnc(NC(=O)Cc4ccc(N(C)C)cc4)s3)s2)cc1 [Compound 164]	240
COCC(C(=O)Nc1nnc(CCCCc2nnc(NC(=O)C(COC)c3ccccc3)s2)s1)c1ccccc1 (centres unmarked) [Compound 165]	510
O=C(Nc1nnc(CCCCc2nnc(NC(=O)C3(c4ccccc4)CCOCC3)s2)s1)C1(c2ccccc2)CCOCC1 [Compound 166]	7400
O=C(Nc1nnc(CCCCc2nnc(NC(=O)C3(c4cccs4)CCOCC3)s2)s1)C1(c2cccs2)CCOCC1 [Compound 167]	11000
O=C(Nc1nnc(CCCCc2nnc(NC(=O)C3(c4ccccc4)CC3)s2)s1)C1(c2ccccc2)CC1 [Compound 168]	1300
O=C(Nc1nnc(CCCCc2nnc(NC(=O)[C@H](O)Cc3ccccc3)s2)s1)[C@H](O)Cc1ccccc1 [Compound 169]	710
O=C(Nc1nnc(CCCc2nnc(NC(=O)C(O)Cc3ccccc3)s2)s1)C(O)Cc1ccccc1 (centres unmarked) [Compound 170]	7400

SMILES	IC50 [nM]
CC(=O)OC(C(=O)Nc1nnc(CCCc2nnc(NC(=O)C(OC(C)=O)c3ccccc3)s2)s1)c1ccccc1 (centres unmarked) [Compound 171]	> 20000
O=C(Nc1nnc(CCCc2nnc(NC(=O)C(O)c3ccccc3)s2)s1)C(O)c1ccccc1 (centres unmarked) [Compound 172]	1700
CC(=O)OC(C(=O)Nc1nnc(CCCCc2nnc(NC(=O)C(OC(C)=O)c3ccccc3)s2)s1)c1ccccc1 (centres unmarked) [Compound 173]	24000
O=C(Nc1nnc(CCCCc2nnc(NC(=O)C(O)c3ccccc3)s2)s1)C(O)c1ccccc1 (centres unmarked) [Compound 174]	290
N[C@H](C(=O)Nc1nnc(CCSCCc2nnc(NC(=O)[C@@H](N)c3ccccc3)s2)s1)c1ccccc1 [Compound 175]	6300
O=C(Nc1nnc(CCCc2nnc(NC(=O)C(CO)c3ccccc3)s2)s1)C(CO)c1ccccc1 (centres unmarked) [Compound 176]	570
O=C(CC(C(=O)O)c1ccccc1)Nc1nnc(CCCCc2nnc(NC(=O)CC(C(=O)O)c3ccccc3)s2)s1 (centres unmarked) [Compound 177]	1100
COC(=O)C(CC(=O)Nc1nnc(CCCCc2nnc(NC(=O)CC(C(=O)O)c3ccccc3)s2)s1)c1ccccc1 (centres unmarked) [Compound 178]	1500
O=C(CCC(C(=O)O)c1ccccc1)Nc1nnc(CCSCCc2nnc(NC(=O)CCC(C(=O)O)c3ccccc3)s2)s1 (centres unmarked) [Compound 179]	3100
O=C(Nc1nnc(CCSCCc2nnc(NC(=O)c3ccccc3CO)s2)s1)c1ccccc1CO [Compound 180]	8800
CS(=O)(=O)c1ccc(CC(=O)Nc2nnc(CCSCCc3nnc(NC(=O)Cc4ccc(S(C)(=O)=O)cc4)s3)s2)cc1 [Compound 182]	580
O=C(Cc1ccc(C(F)(F)F)cc1)Nc1nnc(CCSCCc2nnc(NC(=O)Cc3ccc(C(F)(F)F)cc3)s2)s1 [Compound 183]	> 20000
CC(C)(C)c1ccc(CC(=O)Nc2nnc(CCSCCc3nnc(NC(=O)Cc4ccc(C(C)(C)C)cc4)s3)s2)cc1 [Compound 184]	> 20000
CC(C)(C)OC(=O)Nc1ccc(CC(=O)Nc2nnc(CCSCCc3nnc(NC(=O)Cc4ccc(NC(=O)OC(C)(C)C)cc4)s3)s2)cc1 [Compound 185]	> 20000
O=C(Nc1nnc(CCSCCc2nnc(NC(=O)C3Cc4cc(Cl)ccc4O3)s2)s1)C1Cc2cc(Cl)ccc2O1 (centres unmarked) [Compound 189]	4400
O=C(Nc1nnc(CCCCc2nnc(NC(=O)C(CO)c3cccs3)s2)s1)C(CO)c1cccs1 (centres unmarked) [Compound 190]	250
CC(C)(C)c1ccc(CC(=O)Cc2nnc(CCCCc3nnc(NC(=O)Cc4ccc(C(C)(C)C)cc4)s3)s2)cc1 [Compound 191]	> 20000
O=C(Cc1cc2ccccc2o1)Cc1nnc(CCSCCc2nnc(NC(=O)Cc3cc4ccccc4o3)s2)s1 [Compound 193]	3400
O=C(Cc1cc2ccccc2o1)Nc1nnc(CCCCc2nnc(NC(=O)Cc3cc4ccccc4o3)s2)s1 [Compound 194]	10000
Nc1ccc(CC(=O)Nc2nnc(CCSCCc3nnc(NC(=O)Cc4ccc(N)cc4)s3)s2)cc1 [Compound 195]	300
Nc1ccc(CC(=O)Nc2nnc(CCCCc3nnc(NC(=O)Cc4ccc(N)cc4)s3)s2)cc1 [Compound 196]	190
O=C(CN1C(=O)OC[C@@H]1c1ccccc1)Nc1nnc(CCSCCc2nnc(NC(=O)CN3C(=O)OC[C@@H]3c3ccccc3)s2)s1 [Compound 197]	6900

SMILES	IC50 [nM]
NS(=O)(=O)c1ccc(CC(=O)Nc2nnc(CCCCc3nnc(NC(=O)Cc4ccc(S(N)(=O)=O)cc4)s3)s2)cc1 [Compound 198]	180
O=C(Cc1ccccc1)Nc1nnc(CCSCc2nnc(NC(=O)Cc3ccccc3)s2)s1 [Compound 199]	120
Cn1cc(CC(=O)Nc2nnc(CCSCCc3nnc(NC(=O)Cc4cn(C)c5ccccc45)s3)s2)c2ccccc21 [Compound 200]	610
Cn1cc(CC(=O)Nc2nnc(CCCCc3nnc(NC(=O)Cc4cn(C)c5ccccc45)s3)s2)c2ccccc21 [Compound 201]	2700
COCCOC(C(=O)Nc1nnc(CCCCc2nnc(NC(=O)C(OCCOC)c3ccccc3)s2)s1)c1ccccc1 (centres unmarked) [Compound 203]	1700
COCC(C(=O)Nc1nnc(CCSCCc2nnc(NC(=O)C(COC)c3ccccc3)s2)s1)c1ccccc1 (centres unmarked) [Compound 204]	920
O=C(Cc1ccc(Cl)s1)Nc1nnc(CCSCCc2nnc(NC(=O)Cc3ccc(Cl)s3)s2)s1 [Compound 206]	> 20000
O=C(Cc1cc2ccccc2s1)Nc1nnc(CCSCCc2nnc(NC(=O)Cc3cc4ccccc4s3)s2)s1 [Compound 207]	13000
C=CCC(C(=O)Nc1nnc(CCCCc2nnc(NC(=O)C(CC=C)c3ccccc3)s2)s1)c1ccccc1 (centres unmarked) [Compound 209]	> 20000
O=C(Nc1nnc(CCCCc2nnc(NC(=O)[C@@H](O)c3ccccc3Cl)s2)s1)[C@@H](O)c1ccccc1Cl [Compound 210]	380
O=C(Nc1nnc(CCCCc2nnc(NC(=O)C(O)c3cccc(F)c3F)s2)s1)C(O)c1cccc(F)c1F (centres unmarked) [Compound 211]	1200
O=C(Cc1csc2ccccc12)Nc1nnc(CCSCCc2nnc(NC(=O)Cc3csc4ccccc34)s2)s1 [Compound 212]	> 20000
O=C(Cn1ccc2ccccc21)Nc1nnc(CCSCCc2nnc(NC(=O)Cn3ccc4ccccc43)s2)s1 [Compound 213]	2500
NCCC(C(=O)Nc1nnc(CCSCCc2nnc(NC(=O)C(CN)c3ccccc3)s2)s1)c1ccccc1 (centres unmarked) [Compound 214]	820
O=C(Nc1nnc(CCSCCc2nnc(NC(=O)c3cc4ccccc4o3)s2)s1)c1cc2ccccc2o1 [Compound 215]	16000
N#Cc1ccc(CC(=O)Nc2nnc(CCSCCc3nnc(NC(=O)Cc4ccc(C#N)cc4)s3)s2)cc1 [Compound 216]	890
NS(=O)(=O)c1ccc(CC(=O)Nc2nnc(CCSCCc3nnc(NC(=O)Cc4ccc(S(N)(=O)=O)cc4)s3)s2)cc1 [Compound 217]	240
O=C(Nc1nnc(CCSCCc2nnc(NC(=O)c3coc4ccccc34)s2)s1)c1coc2ccccc12 [Compound 218]	> 20000
COc1ccccc1CC(=O)Nc1nnc(CCSCCc2nnc(NC(=O)Cc3ccccc3OC)s2)s1 [Compound 219]	170
COC(=O)C(C(=O)Nc1nnc(CCCCc2nnc(NC(=O)C(C(=O)OC)c3ccccc3)s2)s1)c1ccccc1 (centres unmarked) [Compound 220]	1600

Same assay, conditions: read-out: GAC Delta N2 IC50 no preinc

SMILES	IC50 [nM]
O=C(Cc1ccccc1CO)Nc1nnc(CCCCc2nnc(NC(=O)Cc3ccccc3CO)s2)s1 [Compound 208]	170
